Data: patent publication US8202857B2, “1,3-oxazepan-2-one and 1,3-diazepan-2-one inhibitors of 11β-hydroxysteroid dehydrogenase 1” (Vitae Pharmaceuticals, Inc., priority 2008, dated 2012)

Biological target: T1, human 11β-HSD1 (Homo sapiens, UniProt P28845)
T1 construct: expressed in transfected cells; host or cells: CHO cells (microsomes)
Assay: Inhibition of a microsomal preparation of 11β-HSD1 (SPA), Biological Test Example 1
Assay type: biochemical
Settings: microsomes from CHO cells overexpressing human 11β-HSD1; for IC50: read-out: IC50 Range^a; for inhibition at 0.1 µM: read-out: Average % inhibition at 100 nM, 100 nM; for Average % inhibition at 100 nM: 0.1 µM
Description: All reactions were carried out at rt in 96 well clear flexible PET Microbeta plates (PerkinElmer). […] After a 10 minute pre-incubation, 50 μL of enzyme solution containing microsomes isolated from CHO cells overexpressing human 11β-HSD1 (10-20 μg/ml of total protein) was added, and the plates were incubated for 90 minutes at rt. The reaction was stopped by adding 50 μl of the SPA beads suspension containing 10 μM 18β-glycyrrhetinic acid, 5 mg/ml protein A coated YSi SPA beads (GE Healthcare) and 3.3 μg/ml of anti-cortisol antibody (East Coast Biologics) in Superblock buffer (Bio-Rad). The plates were shaken for 120 minutes at rt, and the SPA signal corresponding to [^3H]cortisol was measured on a Microbeta plate reader.

T1 sequence (P28845 whole entry): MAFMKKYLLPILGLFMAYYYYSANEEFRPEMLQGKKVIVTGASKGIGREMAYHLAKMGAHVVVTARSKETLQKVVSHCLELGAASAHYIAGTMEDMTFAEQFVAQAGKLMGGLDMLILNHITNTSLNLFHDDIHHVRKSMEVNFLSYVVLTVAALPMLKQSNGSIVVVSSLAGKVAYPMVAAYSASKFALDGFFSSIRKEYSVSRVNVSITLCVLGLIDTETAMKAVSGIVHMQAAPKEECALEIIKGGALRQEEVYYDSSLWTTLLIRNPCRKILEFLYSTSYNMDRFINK

| IC50 [nM] | inhibition at 0.1 µM [%] | Average % inhibition at 100 nM [%] | SMILES |
| --- | --- | --- | --- |
| < 100 | 97.5 |  | C[C@@H](c1ccc(Br)cc1)N1CCC[C@](CC(C)(C)O)(c2ccccc2)NC1=O [EXAMPLE 8, (S)-1-((S)-1-(4-bromophenyl)ethyl)-4-(2-hydroxy-2-methylpropyl)-4-phenyl-1,3-diazepan-2-one] |
| < 100 |  | 85.8 | C[C@@H](c1ccc(Br)cc1)N1CCC[C@@](CCO)(c2ccccc2)NC1=O (single isomer, unassigned) [EXAMPLE 3 Isomer 1] |
| < 100 | 86.2 |  | C[C@@H](c1ccc(Br)cc1)N1CCC[C@](CC(C)(C)O)(c2ccccc2)OC1=O (single isomer, unassigned) [EXAMPLE 15 Isomer 1] |
| < 100 | 96.2 |  | C=CC[C@]1(c2ccccc2)CCCN([C@@H](C)c2ccc(Br)cc2)C(=O)N1 (single isomer, unassigned) [EXAMPLE 2 Isomer 2] |
| < 100 | 95.6 |  | C[C@@H](c1ccc(Br)cc1)N1CCC[C@](CCCO)(c2ccccc2)NC1=O [EXAMPLE 1, (S)-1-((S)-1-(4-bromophenyl)ethyl)-4-(3-hydroxypropyl)-4-phenyl-1,3-diazepan-2-one] |
| < 100 | 80.3 |  | C[C@@H](c1ccc(-c2ccn(C)c(=O)c2)cc1)N1CCC[C@](CC(C)(C)O)(c2ccccc2)OC1=O [EXAMPLE 19, (S)-7-(2-hydroxy-2-methylpropyl)-3-((S)-1-(4-(1-methyl-2-oxo-1,2-dihydropyridin-4-yl)phenyl)ethyl)-7-phenyl-1,3-oxazepan-2-one] |
| < 100 | 94.2 |  | C[C@@H](c1ccc(-c2ccn(C3CC3)c(=O)c2)cc1)N1CCC[C@](CC(C)(C)O)(c2ccccc2)NC1=O [EXAMPLE 13, (S)-1-((S)-1-(4-(1-cyclopropyl-2-oxo-1,2-dihydropyridin-4-yl)phenyl)ethyl)-4-(2-hydroxy-2-methylpropyl)-4-phenyl-1,3-diazepan-2-one] |
| > 100 | 31.7 |  | C[C@@H](c1ccc(Br)cc1)N1CCC[C@@](CC(C)(C)O)(c2ccccc2)OC1=O (single isomer, unassigned) [EXAMPLE 15 Isomer 2] |
| < 100 | 95.2 |  | C=C(C)C[C@]1(c2ccccc2)CCCN([C@@H](C)c2ccc(-c3ccn(C)c(=O)c3)cc2)C(=O)N1 [EXAMPLE 9, (S)-1-((S)-1-(4-(1-methyl-2-oxo-1,2-dihydropyridin-4-yl)phenyl)ethyl)-4-(2-methylallyl)-4-phenyl-1,3-diazepan-2-one] |
| < 100 | 98.3 |  | C[C@@H](c1ccc(-c2ccn(C)c(=O)c2)cc1)N1CCC[C@](CC(C)(C)O)(c2ccccc2)NC1=O [EXAMPLE 11, (S)-4-(2-hydroxy-2-methylpropyl)-1-((S)-1-(4-(1-methyl-2-oxo-1,2-dihydropyridin-4-yl)phenyl)ethyl)-4-phenyl-1,3-diazepan-2-one] |
| > 100 |  | 41.6 | C[C@@H](c1ccc(O)cc1)N1CCCC(CC(C)(C)O)(c2ccccc2)OC1=O (single isomer, unassigned) [EXAMPLE 17 Isomer 1] |
| < 100 | 95.8 |  | CC(O)C[C@]1(c2ccccc2)CCCN([C@@H](C)c2ccc(Br)cc2)C(=O)N1 (stereo partly drawn) [EXAMPLE 4, (4S)-1-((S)-1-(4-bromophenyl)ethyl)-4-(2-hydroxypropyl)-4-phenyl-1,3-diazepan-2-one] |
| < 100 | 97.6 |  | C[C@@H](c1ccc(Br)cc1)N1CCC[C@](CCO)(c2ccccc2)NC1=O (single isomer, unassigned) [EXAMPLE 3 Isomer 2] |
| < 100 |  | 68.5 | C[C@@H](c1ccc(O)cc1)N1CCCC(CC(C)(C)O)(c2ccccc2)OC1=O (single isomer, unassigned) [EXAMPLE 17 Isomer 2] |
| < 100 | 95.5 |  | COc1ccc(-c2ccc([C@H](C)N3CCC[C@](CCO)(c4ccccc4)NC3=O)cc2)cn1 [EXAMPLE 6, (S)-4-(2-hydroxyethyl)-1-((S)-1-(4-(6-methoxypyridin-3-yl)phenyl)ethyl)-4-phenyl-1,3-diazepan-2-one] |
| < 100 | 93 |  | C=C(C)C[C@]1(c2ccccc2)CCCN([C@@H](C)c2ccc(Br)cc2)C(=O)N1 [EXAMPLE 7, (S)-1-((S)-1-(4-bromophenyl)ethyl)-4-(2-methylallyl)-4-phenyl-1,3-diazepan-2-one] |
| < 100 | 93.7 |  | C[C@@H](c1ccc(Br)cc1)N1CCC[C@](CCC(N)=O)(c2ccccc2)NC1=O [EXAMPLE 5, 3-((S)-1-((S)-1-(4-bromophenyl)ethyl)-2-oxo-4-phenyl-1,3-diazepan-4-yl)propanamide] |
| < 100 | 97.4 |  | C[C@@H](c1ccc(-c2ccc(=O)n(C3CC3)c2)cc1)N1CCC[C@](CC(C)(C)O)(c2ccccc2)NC1=O [EXAMPLE 20, (S)-1-((S)-1-(4-(1-cyclopropyl-6-oxo-1,6-dihydropyridin-3-yl)phenyl)ethyl)-4-(2-hydroxy-2-methylpropyl)-4-phenyl-1,3-diazepan-2-one] |
| < 100 | 92.9 |  | C[C@@H](c1ccc(-c2ccc(=O)n(C)c2)cc1)N1CCC[C@](CC(C)(C)O)(c2ccccc2)NC1=O [EXAMPLE 12, (S)-4-(2-hydroxy-2-methylpropyl)-1-((S)-1-(4-(1-methyl-6-oxo-1,6-dihydropyridin-3-yl)phenyl)ethyl)-4-phenyl-1,3-diazepan-2-one] |
| < 100 | 86.8 |  | C[C@@H](c1ccc(-c2ccn(C3CC3)c(=O)c2)cc1)N1CCC[C@](CC(C)(C)O)(c2ccccc2)OC1=O [EXAMPLE 18, (S)-3-((S)-1-(4-(1-cyclopropyl-2-oxo-1,2-dihydropyridin-4-yl)phenyl)ethyl)-7-(2-hydroxy-2-methylpropyl)-7-phenyl-1,3-oxazepan-2-one] |
| < 100 | 97.1 |  | C=C(C)C[C@]1(c2ccccc2)CCCN([C@@H](C)c2ccc(-c3ccc(=O)n(C)c3)cc2)C(=O)N1 [EXAMPLE 10, (S)-1-((S)-1-(4-(1-methyl-6-oxo-1,6-dihydropyridin-3-yl)phenyl)ethyl)-4-(2-methylallyl)-4-phenyl-1,3-diazepan-2-one] |

| SMILES | IC50 [nM] | inhibition at 0.1 µM [%] | Average % inhibition at 100 nM [%] |
| --- | --- | --- | --- |
| C=C(C)C[C@@]1(c2ccccc2)CCCN([C@@H](C)c2ccc(Br)cc2)C(=O)O1 (single isomer, unassigned) [EXAMPLE 14 Isomer 2] | < 100 | 111 |  |
| C=C(C)C[C@]1(c2ccccc2)CCCN([C@@H](C)c2ccc(Br)cc2)C(=O)O1 (single isomer, unassigned) [EXAMPLE 14 Isomer 1] | < 100 | 97.4 |  |
